The subject of assay [1] is full-thickness skin defect wound surfaces. Kind of assay: Effects of cyclic peptide Hst1 on wound repair in mice (Example 10): healing rate, HE/Masson histology, CD31/VEGF immunohistochemistry. The assay is classed as in vivo, C57 BL/6 mice. As for the experimental part:
This example adopted the propargylglycine-Hst1 cyclic peptide (Click-Histatin1) provided in Example 1, a cyclized Hst1 (Sortase A-cyclic histatin1) prepared by the Sortase A enzymatic method provided in Example 4, and a linear peptide Hst1 (Histatin1) to conduct animal experiments to observe the effect of the propargylglycine-Hst1 on the healing rates of the wound surfaces of mice. The concentration of the linear peptide Hst1 was 10 μM, the concentration of the propargylglycine-Hst1 cyclic peptide was 0.1 μM, and the concentration of the cyclized Hst1 prepared by the Sortase A enzymatic method was each 0.1 μM. 12 healthy male special pathogen-free grade C57 BL/6 mice (purchased from Guangdong Experimental Animal Center) of 6-8 weeks old and weighing 22-28 g. They were intraperitoneally injected with 5 ml/kg of 1% pentobarbital sodium for anesthesia. After the mice had no corneal reflex, the hair on their backs was carefully removed and disinfected with alcohol. […] full-thickness skin defect wound surfaces were prepared on the back of each mouse by using a circular skin punch. The 12 mice were divided into a Control (blank) group with 3 mice, a 10 μM linear peptide Hst1 (Histatin1) group with 3 mice, a 0.1 μM propynylglycine-Hst1 cyclic peptide (Click-Histatin1) group with 3 mice, and a 0.1 μM cyclized Hst1 prepared by a Sortase A enzymatic method (Sortase A-cyclic histatin1) group with 3 mice, according to a random number table method. Each wound surface was added with 0.5 ml of four drugs respectively, and administration was conducted every day until the wound surfaces of the experimental groups healed. Photographs were taken on days 0, 3, 5, 7, and 10 after surgery, and wound tissues were sampled on day 10 for subsequent pathological staining. On days 0, 3, 5, 7, and 10 after injury, the general condition of wound healing of the mice was observed and photographed with a digital camera (see FIG. 4), and the wound healing rate was calculated (see FIG. 5). Wound healing rate=(wound area immediately after injury−unhealed wound area at each time point)[…]wound area immediately after injury×100%. The wound specimens were fixed in 4% paraformaldehyde for 48 hours, rinsed with tap water for 10 minutes, dehydrated with graded ethanol, permeabilized with xylene, and embedded in paraffin to prepare 4 μm thick sections. Some sections were taken for HE staining and Masson staining, and observed for the thickness of the granulation tissue, the length of the dermal gap, and the newly grown collagen of the wound surface under an inverted fluorescence microscope at 40×, 100×, 200×, and 400× respectively (see FIGS. 6 and 7). 5 sections were taken from each mouse, and 5 fields of view were selected for each section. Data analysis was performed using the software Image-pro Plus. […] It was added with a rabbit anti-mouse CD31 primary antibody (with a dilution ratio of 1:300) and a mouse anti-VEGF (with a dilution ratio of 1:100), incubated overnight at 4° C., and washed with PBS. […] It was subjected to DAB development, hematoxylin counterstaining. gradient ethanol dehydration, xylene permeabilization, and resin blocking. 5 sections were taken from each mouse, and 5 fields of view were selected for each section. The sections were observed under a 400× inverted fluorescence microscope, and analyzed for the number of CD31-positive blood vessels (see FIG. 8) and VEGF expression amounts (see FIG. 9, shown in brown) by using Image-pro Plus software. The measurement data were expressed by M±SD, and the data were analyzed by one-way analysis of variance (ANOVA) and an independent samples T-test with SPSS 20.0 software to detect whether the differences among the groups were statistically significant, and a Bonferroni test was used for pairwise comparison. *p<0.05. **p<0.01. ***p<0.001 meant the difference was statistically significant, and p>0.05 was not statistically significant.

Assay [2] concerns fibroblasts (NIH/3T3). Put plainly: Scratching experiment, Hst1 cyclic peptides (Examples 11 and 12). The assay is classed as cell-based. The note with it: dosage needed to achieve the same pharmaceutical effect in the scratch experiment. As for the experimental part:
At the same time, fibroblasts (NIH/3T3; GNM 6; Chinese Academy of Sciences, China) were plated into a 6-well plate at a number of 2×10^6/well and cultured to a density of 70-80%. The cells were starved for 8-12 hours before the experiment. Mitomycin C (Sigma Aldrich, USA) was added into the culture medium to make its concentration in the culture medium be 15 μg/ml, and the culture medium was changed after 3 hours of treatment. Scratching was conducted with a 200 μl pipette tip perpendicular to the bottom of the well-plate with the same force, and the well-plate was rinsed with PBS twice after scratching. Each well was added with an appropriate amount of a DEME medium (10% FBS, 1% double antibody), and except for the blank control group, each well was added with 10 μM of the linear Hst1, 0.01 μM of the propynylglycine-Hst1 cyclic peptide, 0.1 μM of the propynylglycine-Hst1 cyclic peptide and 1 μM of the propynylglycine-Hst1 cyclic peptide as experimental groups. At 0 hour, the cells in each group were photographed by using a microscope (Olympus, Japan). […] The scratched area of each group was calculated by using imageJ (Rawak Software, Inc. Germany) software, and the scratch area at 0 hour was an initial scratch area. The scratch healing rate was calculated as follows: […]

[3] abbreviates: day 10, immunohistochemistry, 0.1 μM Click-Histatin1, 10 μM Histatin1.

As to “Linear Hst1: linear peptide Hst1 (Histatin1), amino acid sequence SEQ ID NO.1”, the “healing rate of the wound surface” value in assay [1] (day 7, 10 μM Histatin1 vs 0.1 μM Click-Histatin1) is recorded as “no significant difference”. Also, the “dermal gap length at both ends of the wound surface” value in assay [1] (day 10, HE staining, 0.1 μM Click-Histatin1, 0.1 μM Sortase A-cyclic histatin1, 10 μM Histatin1) is reported as “longest dermal gap length”. The “expression amount of collagen at the wound surfaces” value in assay [1] (day 10, Masson staining, 0.1 μM Click-Histatin1, 0.1 μM Sortase A-cyclic histatin1, 10 μM Histatin1) is “significantly higher than that of the Control group”. Also, in assay [1] (setting [3]), the VEGF expression amount result is reported as “higher than that in the Control group” and the “number of CD31-positive blood vessels under each field of view” value is listed as “significantly higher than that in the Control group”. Further, in assay [2], the “Dosage of agents required for scratch test” value came out at 10 µM.

These data come from patent US20240336658A1, “CYCLIC PEPTIDE AND PREPARATION METHOD AND USE THEREOF” (HANGZHOU HUIBO SCIENCE AND TECHNOLOGY CO., LTD, priority 2021, published 2024).
